Laboratory results: ChEMBL document CHEMBL3832053, “DailyMed|setid=94de983f-549b-42ed-9f40-b022aa3bef0f | TRANDOLAPRIL- trandolapril tablet|Carilion Materials Management”
Values joined by “and” are separate entries in the source; they are usually repeats but may differ in a detail not shown here. Identical values can stand only once.

Tested on: Homo sapiens
Assay: Pharmacokinetic parameters for Trandolapril or its active metabolite of Trandolaprilat, after oral or intravenous (IV) administration of Trandolapril.
Details: in vivo; for Total CL: iv

Structure (SMILES) | Total CL [L/h] | Excretion (po) | F (po) [%] | Protein binding (po) | t1/2 ss (po) [h] | CL renal (po) [L/h] | t1/2 (po) [h]
C[C@H](N[C@@H](CCc1ccccc1)C(=O)O)C(=O)N1[C@H](C(=O)O)C[C@H]2CCCC[C@@H]21 [TRANDOLAPRILAT] | 7 | 66% and 33% | 70 | 94% and 65% | 22.5 |  | 
CCOC(=O)[C@H](CCc1ccccc1)N[C@@H](C)C(=O)N1[C@H](C(=O)O)C[C@H]2CCCC[C@@H]21 [TRANDOLAPRIL] | 52 |  |  |  |  | 1 to 4 | 6
